Here are results for 21 compounds from PMC9330635, “Halogenated Pyrrolopyrimidines with Low MIC on Staphylococcus aureus and Synergistic Effects with an Antimicrobial Peptide” (Antibiotics, 2022).

Values after ≈ are worked out from the molar mass of the structure shown. Where two headings read alike, the source gives them in different places. Where only a bound is given, the exact number is not on record here.

One data set relates to E. coli (MG1655). The experiment in a line: MIC by broth microdilution, E. coli. The data set is classed as cell-based, Escherichia coli. The conditions noted are these: E. coli MG1655, broth microdilution; for MIC: Escherichia coli. The method, then: (§1) In this study, we have, therefore, altered our strategy and used minimal inhibitory concentration assays to identify and improve antibacterial agents. A total of 10 pyrrolopyrimidines with variation of the 4-amino group were assayed for their MIC in E. coli (MG1655) and S. aureus (ATCC29213) using the broth microdilution method. Subsequently, the compounds were also counter-screened for their inhibition of human EGFR.
(§2) The MIC of compound 1–21 towards Escherichia coli (MG1655) and Staphylococcus aureus (ATCC29213) was determined following the standards that were recommended by the Clinical and Laboratory Standards Institute (CLSI) for the broth microdilution method. Briefly, the bacterial suspensions were adjusted to 0.5 McFarland standard (~1 × 10^8 colony forming units (CFU)/mL) and diluted 1:200 in Cation-Adjusted Mueller-Hinton Broth (CAMHB, […], […]). The suspension was subsequently added to polypropylene microtiter plates (100 µL/well, ~5 × 10^4 CFU/well) that were already prepared with different concentrations of the various halogenated fused pyrimidines (11 µL/well, two-fold serial dilutions). The plates were incubated at 37 °C overnight before inspection for visible growth and determination of the MIC values.
In general terms: In broth dilution the organism is exposed to a series of concentrations in liquid medium.

The subject of a further data set is S. aureus (ATCC29213). The experiment in a line: MIC by broth microdilution, S. aureus. It counts as cell-based, Staphylococcus aureus. The conditions noted are these: for MIC: Staphylococcus aureus; for Activity towards S. aureus (in words): culture, MIC assay. The method, then:
as §1, §2

In the next data set the test system is S. aureus. The experiment in a line: MIC towards S. aureus in combination with the peptide betatide. The data set is classed as cell-based, Staphylococcus aureus. The conditions noted are these: betatide 8 mg/L (half its MIC). The method, then: The concentration of betatide was 8 mg/L, which corresponds to half the MIC concentration.
as §2

The target in another data set is T1, human EGFR (Homo sapiens, UniProt P00533).
T1 construct: purchased Invitrogen (ThermoFisher), assay service
The experiment in a line: Enzymatic EGFR (ErbB1) inhibition, Z'-LYTE. The data set is classed as biochemical. The conditions noted are these: 100 nM compound, ATP equal to KM. The method, then:
The compounds were supplied in a 10 mM DMSO solution, and enzymatic EGFR (ErbB1) inhibition potency was determined by Invitrogen (ThermoFisher) using their Z’-LYTE® assay technology. The compounds were tested for their inhibitory activity at 100 nM in duplicates. The IC50 values that were reported for 1 and 5 are based on the average of 2 titration curves (20 data points), and were calculated from activity data with a four-parameter logistic model using SigmaPlot (Windows Version 12.0 from Systat Software, Inc., Palo Alto, CA, USA). Unless stated otherwise, the ATP concentration that was used was equal to apparent KM.

The mark [1] stands for this setting: ATCC29213, S. aureus, single agent (Table 3), read-out: Single Comp. MIC.
[2] abbreviates: S. aureus ATCC29213, broth microdilution, read-out: S. aureus MIC.

Broadly, the melting point is the temperature of the solid-liquid transition. One may read the MIC as the smallest concentration in the dilution series that meets the test's criterion for growth inhibition. Usually inhibition stands for the change of the read-out against control, counted positive when it falls.

On to `C[C@@H](Nc1ncnc2[nH]c(-c3ccc(O)cc3)cc12)c1ccc(I)cc1` (hydrate or solvate) [Compound 6, (R)-4-(4-((1-(4-Iodophenyl)ethyl)amino)-7H-pyrrolo[2,3-d]pyrimidin-6-yl)phenol], for which the melting point was 254.9 to 256 °C (dec.).

`C[C@@H](Nc1ncnc2sc(-c3ccc(O)cc3)cc12)c1ccc(Br)cc1` (hydrate or solvate) [Compound 21, (R)-4-(4-((1-(4-Bromophenyl)ethyl)amino)thieno[2,3-d]pyrimidin-6-yl)phenol] registered a melting point of 144.1 to 145.4 °C.

`Cc1ccc([C@@H](C)Nc2ncnc3[nH]c(-c4ccc(O)cc4)cc23)cc1` [Compound 2, (R)-4-(4-((1-(p-Tolyl)ethyl)amino)-7H-pyrrolo[2,3-d]pyrimidin-6-yl)phenol]: the MIC with E. coli (MG1655) was over 128 µg/mL; in the data set on S. aureus (ATCC29213) (setting [1]) it was 16 µg/mL (≈ 46.5 µM); in the data set on S. aureus (ATCC29213) (setting [2]) it was 16 µg/mL (≈ 46.5 µM). For the same compound, in the data set on S. aureus, the “Combination with Betatide MIC” value is 8 µg/mL. Moreover, the inhibition at 0.1 µM at human EGFR came out at 91%.

In the case of `C[C@@H](Nc1ncnc2[nH]c(-c3ccc(O)cc3)cc12)c1ccc(F)cc1` [Compound 3], the MIC in the data set with E. coli (MG1655) and with S. aureus (ATCC29213) (setting [2]) was over 128 µg/mL each time. Also, in the data set on S. aureus (ATCC29213), the “Activity towards S. aureus (in words)” value was “inactive”. On human EGFR, this compound showed an inhibition at 0.1 µM of 92%.

In the case of `C[C@@H](Nc1ncnc2[nH]c(-c3ccc(O)cc3)cc12)c1ccc(Cl)cc1` [Compound 4, (R)-4-(4-((1-(4-Chlorophenyl)ethyl)amino)-7H-pyrrolo[2,3-d]pyrimidin-6-yl)phenol], the melting point is 216.6 °C (dec.). In addition, the MIC in the data set on E. coli (MG1655) is over 128 µg/mL. Moreover, the MIC with S. aureus (ATCC29213) (setting [1]) stood at 16 µg/mL (≈ 43.9 µM). In the data set on S. aureus (ATCC29213) (setting [2]), the MIC worked out at 16 µg/mL (≈ 43.9 µM). Besides, the “Combination with Betatide MIC” value with S. aureus came out at 4 µg/mL. The same compound gave an inhibition at 0.1 µM against human EGFR of 91%.

As to `C[C@@H](Nc1ncnc2[nH]c(-c3ccc(O)cc3)cc12)c1ccc(I)cc1` [Compound 6, (R)-4-(4-((1-(4-Iodophenyl)ethyl)amino)-7H-pyrrolo[2,3-d]pyrimidin-6-yl)phenol], the values for the MIC with E. coli (MG1655), in the data set with S. aureus (ATCC29213) (setting [1]) and in the data set with S. aureus (ATCC29213) (setting [2]) were over 128 µg/mL, 8 µg/mL (≈ 17.5 µM) and 8 µg/mL (≈ 17.5 µM), respectively. In addition, the “Combination with Betatide MIC” value in the data set with S. aureus stood at 2 µg/mL. Further, 0.1 µM produced 43% inhibition at human EGFR.

Take `C[C@@H](Nc1ncnc2[nH]c(-c3ccc(O)cc3)cc12)c1cccc(Br)c1` [Compound 7, (R)-4-(4-((1-(3-Bromophenyl)ethyl)amino)-7H-pyrrolo[2,3-d]pyrimidin-6-yl)phenol]: the MIC was over 128 µg/mL against E. coli (MG1655), 16 µg/mL (≈ 39.1 µM) with S. aureus (ATCC29213) (setting [1]) and 16 µg/mL (≈ 39.1 µM) with S. aureus (ATCC29213) (setting [2]). For the same compound, the “Combination with Betatide MIC” value in the data set with S. aureus amounted to 4 µg/mL. For the same compound, the inhibition at 0.1 µM at human EGFR turned out to be 89%.

For the compound `Oc1ccc(-c2cc3c(NCc4ccc(Br)cc4)ncnc3[nH]2)cc1` [Compound 8, 4-(4-((4-Bromobenzyl)amino)-7H-pyrrolo[2,3-d]pyrimidin-6-yl)phenol], the minimal inhibitory concentration (MIC) with E. coli (MG1655) and in the data set on S. aureus (ATCC29213) (setting [2]) was over 128 µg/mL each time. Moreover, in the data set on S. aureus (ATCC29213), the “Activity towards S. aureus (in words)” value was “abolished all activity”. Further, at 0.1 µM the inhibition against human EGFR was 67%.

With `C[C@H](Nc1ncnc2[nH]c(-c3ccc(O)cc3)cc12)c1ccc(Br)cc1` [Compound 9, (S)-4-(4-((1-(4-Bromophenyl)ethyl)amino)-7H-pyrrolo[2,3-d]pyrimidin-6-yl)phenol], the MIC against E. coli (MG1655) and with S. aureus (ATCC29213) (setting [2]) was over 128 µg/mL each time. Also, the “Activity towards S. aureus (in words)” value in the data set on S. aureus (ATCC29213) is recorded as “abolished all activity”.

Regarding `COc1ccc(-c2cc3c(N[C@@H](C)c4ccc(Br)cc4)ncnc3[nH]2)cc1` [Compound 11, (S)-N-(1-(4-Bromophenyl)ethyl)-6-(4-methoxyphenyl)-7H-pyrrolo[2,3-d]pyrimidin-4-amine], the MIC against E. coli (MG1655) and with S. aureus (ATCC29213) (setting [2]) was over 128 µg/mL each time.

With `C[C@@H](Nc1ncnc2[nH]c(-c3ccccc3)cc12)c1ccc(Br)cc1` [Compound 12, (R)-N-(1-(4-Bromophenyl)ethyl)-6-phenyl-7H-pyrrolo[2,3-d] pyrimidin-4-amine], the MIC against E. coli (MG1655) and in the data set with S. aureus (ATCC29213) (setting [2]) was over 128 µg/mL throughout. This compound returned an inhibition at 0.1 µM at human EGFR of 66%.

As for `C[C@@H](Nc1ncnc2[nH]c(-c3ccc(F)cc3)cc12)c1ccc(Br)cc1` [Compound 13, (R)-N-(1-(4-Bromophenyl)ethyl)-6-(4-fluorophenyl)-7H-pyrrolo[2,3-d] pyrimidin-4-amine], the MIC against E. coli (MG1655) and in the data set on S. aureus (ATCC29213) (setting [2]) was over 128 µg/mL in each case. This compound had an inhibition at 0.1 µM on human EGFR of 58%.

`C[C@@H](Nc1ncnc2[nH]c(-c3ccc([N+](=O)[O-])cc3)cc12)c1ccc(Br)cc1` [Compound 14, (R)-N-(1-(4-Bromophenyl)ethyl)-6-(4-nitrophenyl)-7H-pyrrolo [2,3-d] pyrimidin-4-amine]: the MIC against E. coli (MG1655) and with S. aureus (ATCC29213) (setting [2]) was over 128 µg/mL throughout. The compound also gave an inhibition at 0.1 µM at human EGFR of 33%.

Turning to `C[C@@H](Nc1ncnc2[nH]c(-c3ccc(N)cc3)cc12)c1ccc(Br)cc1` [Compound 15, (R)-6-(4-Aminophenyl)-N-(1-(4-bromophenyl)ethyl)-7H-pyrrolo[2,3-d]pyrimidin-4-amine], the MIC in the data set on E. coli (MG1655) and with S. aureus (ATCC29213) (setting [2]) was over 128 µg/mL in each case. Besides, on human EGFR, 0.1 µM produced 90% inhibition.

`COC(=O)c1ccc(-c2cc3c(N[C@H](C)c4ccc(Br)cc4)ncnc3[nH]2)cc1` [Compound 16, Methyl (R)-4-(4-((1-(4-bromophenyl)ethyl)amino)-7H-pyrrolo[2,3-d]pyrimidin-6-yl)be-nzoate]: the MIC with E. coli (MG1655) and in the data set with S. aureus (ATCC29213) (setting [2]) was over 128 µg/mL throughout. In addition, the inhibition at 0.1 µM against human EGFR came to 42%.

In the case of `C[C@@H](Nc1ncnc2[nH]c(-c3ccc(S(N)(=O)=O)cc3)cc12)c1ccc(Br)cc1` [Compound 17, (R)-4-(4-((1-(4-Bromophenyl)ethyl)amino)-7H-pyrrolo[2,3-d]pyrimidin-6-yl)benzene-sulfonamide], the MIC against E. coli (MG1655) and with S. aureus (ATCC29213) (setting [2]) was over 128 µg/mL each time. On human EGFR, testing at 0.1 µM gave an inhibition of 85%.

Regarding `C[C@@H](Nc1ncnc2[nH]c(-c3ccccc3O)cc12)c1ccc(Br)cc1` [Compound 18, (R)-2-(4-((1-(4-Bromophenyl)ethyl)amino)-7H-pyrrolo[2,3-d]pyrimidin-6-yl)phenol], the minimal inhibitory concentration (MIC) against E. coli (MG1655) and with S. aureus (ATCC29213) (setting [2]) was over 128 µg/mL in each case. Moreover, on human EGFR, testing at 0.1 µM gave an inhibition of 80%.

With `C[C@@H](Nc1ncnc2[nH]c(-c3cccc(O)c3)cc12)c1ccc(Br)cc1` [Compound 19, (R)-3-(4-((1-(4-Bromophenyl)ethyl)amino)-7H-pyrrolo[2,3-d]pyrimidin-6-yl)phenol], the MIC with E. coli (MG1655) was over 128 µg/mL; in the data set with S. aureus (ATCC29213) (setting [1]) it was 8 µg/mL (≈ 19.5 µM); with S. aureus (ATCC29213) (setting [2]), 16 µg/mL (≈ 39.1 µM). The “Combination with Betatide MIC” value with S. aureus stood at 2 µg/mL. The same compound showed an inhibition at 0.1 µM against human EGFR of 73%.

`COc1ccc(-c2cc3c(N[C@H](C)c4ccc(Br)cc4)ncnc3s2)cc1` [Compound 20, (R)-N-(1-(4-Bromophenyl)ethyl)-6-(4-methoxyphenyl)thieno [2,3-d] pyrimidin-4-amine] returned a melting point of 107.1 to 109.4 °C. Moreover, the MIC against E. coli (MG1655) was over 128 µg/mL. The MIC with S. aureus (ATCC29213) (setting [2]) was over 128 µg/mL. Further, in the data set with S. aureus (ATCC29213), the “Activity towards S. aureus (in words)” value was “no activity”. At human EGFR, this compound returned an inhibition at 0.1 µM of 12%.

`C[C@@H](Nc1ncnc2sc(-c3ccc(O)cc3)cc12)c1ccc(Br)cc1` [Compound 21, (R)-4-(4-((1-(4-Bromophenyl)ethyl)amino)thieno[2,3-d]pyrimidin-6-yl)phenol]: the MIC was over 128 µg/mL against E. coli (MG1655), 32 µg/mL (≈ 75.1 µM) with S. aureus (ATCC29213) (setting [1]) and 32 µg/mL (≈ 75.1 µM) in the data set with S. aureus (ATCC29213) (setting [2]). In addition, the “Combination with Betatide MIC” value in the data set with S. aureus stood at 4 µg/mL. Besides, at human EGFR, the inhibition at 0.1 µM was 5%.

Consider “(R)-4-(4-((1-(4-Bromophenyl)ethyl)(methyl)amino)-7H-pyrrolo [2,3-d]pyrimidin-6-yl)phenol [Compound 10]”, for which the “E. coli MIC” value in the data set with E. coli (MG1655) is over 128 µg/mL. Further, in the data set with S. aureus (ATCC29213) (S. aureus ATCC29213, broth microdilution), the “S. aureus MIC” value is over 128 µg/mL. The “Activity towards S. aureus (in words)” value in the data set with S. aureus (ATCC29213) is “abolished all activity”. Further, the “Human EGFR % inhibition” value on human EGFR stood at 16%.
